The values that follow come from patent publication US20110065762A1, “METHODS OF USE OF ANTIVIRAL COMPOUNDS” (priority 2009, published 2011).

This experiment has as its target T1, M2(S31) (Influenza A virus, UniProt P0DOF5).
T1 construct: expressed in transfected cells; host or cells: CHO cells (membrane preparation adsorbed to SSM sensors)
As to the kind of experiment: Cell-free electrophysiology of M2 proton channels on solid supported membranes (IonGate SURFE2R screen). The conditions noted are these: 25 μM inhibitor, activation by pH jump 7.0 to 6.0, % inhibition=100×(1−I/Io); for inhibition at 25 µM: read-out: IonGate_M2(S31)_Screen % Inhibition at 25 μM. It is filed as biochemical.

T1 sequence (P0DOF5 whole entry): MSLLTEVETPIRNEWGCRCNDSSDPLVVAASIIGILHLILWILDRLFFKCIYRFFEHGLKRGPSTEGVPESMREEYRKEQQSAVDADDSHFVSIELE

In general, inhibition refers to the share of the control response that was lost under treatment. Consider `NCC1(O)C2CC3CC(C2)CC1C3` (stereo not drawn) [Example 1], for which the inhibition at 25 µM is 51 to 95%. `OCCNC1C2CC3CC(C2)CC1C3` (stereo not drawn) [Example 2]: the inhibition at 25 µM lay in the range of 51 to 95%.

Turning to `NC1C2CC3CC1CC(O)(C3)C2` (stereo not drawn) [Example 3], the inhibition at 25 µM lay in the range of 11 to 50%.

Turning to `OC12CC3CC(C1)C(n1ccnc1)C(C3)C2` (stereo not drawn) [Example 4, 4-imidazol-1-yladamantan-1-ol], the inhibition at 25 µM lay within 11 to 50%. Same read-out and setting: next, `NCC1C2CC3CC1CC(O)(C3)C2` (stereo not drawn) [Example 5]: 11 to 50%; `NCC1(O)C2CC3CC1CC(O)(C3)C2` (stereo not drawn) [Example 6]: 11 to 50%.

Take `N#CC1C2CC3CC1CC(O)(C3)C2` (stereo not drawn) [Example 8]: the “IonGate_M2(S31)_Screen % Inhibition at 25 μM” value is given as “B (11-50% (B))”.

Consider `N#CC1C2CC3CC1CC(O)(C3)C2` (stereo not drawn) [Example 9], for which the “IonGate_M2(S31)_Screen % Inhibition at 25 μM” value was “C (1-10% (C))”.

Take `N=C(N)C1C2CC3CC(C2)CC1C3` (stereo not drawn) [Example 11]: the inhibition at 25 µM was in the range of 51 to 95%.

For the compound `N#CC1C2CC3CC1CC(Cl)(C3)C2` (stereo not drawn) [Example 12], the inhibition at 25 µM lay in the range of 11 to 50%. On to `N=C(N)C1C2CC3CC1CC(Cl)(C3)C2` (stereo not drawn) [Example 14], for which the inhibition at 25 µM was 51 to 95%.

As to `NC1C2CC3CC1CC(Cl)(C3)C2` (stereo not drawn) [Example 15], the inhibition at 25 µM lay in the range of 51 to 95%. Consider `N#CC1C2CC3CC(C2)CC1C3` (stereo not drawn) [Example 16], for which the inhibition at 25 µM was in the range of 51 to 95%.

With `O=[N+]([O-])C1C2CC3CC1CC(Cl)(C3)C2` (stereo not drawn) [Example 18], the inhibition at 25 µM lay in the range of 1 to 10%. On to `NC1C2CC3CC(C2)CC1(O)C3` (stereo not drawn) [Example 19], for which the inhibition at 25 µM lay within 51 to 95%. `O=[N+]([O-])C1C2CC3CC(C2)CC1(O)C3` (stereo not drawn) [Example 20]: the inhibition at 25 µM was 11 to 50%.

In the case of `C1NC2C3CC4CC(C3)CC2(C4)O1` (stereo not drawn) [Example 21], the inhibition at 25 µM lay in the range of 51 to 95%.

As for `NC1C2CC3CC1CC(S)(C3)C2` (stereo not drawn) [Example 22], the inhibition at 25 µM lay within 51 to 95%.

Regarding `N=C(N)NC1C2CC3CC1CC(Cl)(C3)C2` (stereo not drawn) [Example 23], the “IonGate_M2(S31)_Screen % Inhibition at 25 μM” value was “B (11-50% (B))”. `N=C(N)NC1C2CC3CC1CC(Cl)(C3)C2` (stereo not drawn) [Example 24]: the “IonGate_M2(S31)_Screen % Inhibition at 25 μM” value is “A (51-95% (A))”. Consider `NC1C2CC3CC(C2)CC1C3` (stereo not drawn) [Example 26], for which the inhibition at 25 µM lay in the range of 11 to 50%. In the case of `C1C2CC3CC1CC(C2)C1NC31` (stereo not drawn) [Example 27], the inhibition at 25 µM lay in the range of 11 to 50%. For `O=C1C(=O)C2CC3CC(CC1C3)C2` [Example 28], the inhibition at 25 µM fell in the range of 11 to 50%.

Regarding `O/N=C1\C(=N\O)C2CC3CC(CC1C3)C2` [Example 29], the inhibition at 25 µM is 11 to 50%. The same measure, in the same setting: next, `NC1C2CC3CC(C2)CC(C3)C1N` (stereo not drawn) [Example 30]: 51 to 95%; `O=C1CC2CC3CC1CC(O)(C2)C3` (stereo not drawn) [Example 31]: 11 to 50%. Take `O/N=C1\CC2CC3CC1CC(O)(C2)C3` (stereo not drawn) [Example 32]: the inhibition at 25 µM fell in the range of 11 to 50%. With `NC1CC2CC3CC1CC(O)(C2)C3` (stereo not drawn) [Example 33], the inhibition at 25 µM is 11 to 50%. In the case of `OC12CC3CC(C1)C1NC1C(C3)C2` (stereo not drawn) [Example 34], the inhibition at 25 µM lay within 11 to 50%.

As to `O=C1C(=O)C2CC3CC1CC(O)(C3)C2` [Example 35], the inhibition at 25 µM was 1 to 10%. As for `OC1C2CC3CC(CC(O)(C3)C2)C1O` (stereo not drawn) [Example 36], the inhibition at 25 µM fell in the range of 1 to 10%. The same measure, in the same setting: next, `O=C1CC2CC3CC1CC(Cl)(C2)C3` (stereo not drawn) [Example 37]: 11 to 50%. For the compound `O/N=C1\CC2CC3CC1CC(Cl)(C2)C3` (stereo not drawn) [Example 38], the inhibition at 25 µM lay in the range of 11 to 50%.

In the case of `NC1CC2CC3CC1CC(Cl)(C2)C3` (stereo not drawn) [Example 39], the inhibition at 25 µM fell in the range of 11 to 50%.

For the compound `O=C1C(=O)C2CC3CC1CC(Cl)(C3)C2` [Example 40], the inhibition at 25 µM lay in the range of 1 to 10%. As for `OC1C2CC3CC(CC(Cl)(C3)C2)C1O` (stereo not drawn) [Example 41], the inhibition at 25 µM is 1 to 10%. Turning to `ON=C1C(=NO)C2CC3CC1CC(Cl)(C3)C2` [Example 42], the inhibition at 25 µM fell in the range of 11 to 50%. Turning to `NC1C2CC3CC(CC(Cl)(C3)C2)C1N` (stereo not drawn) [Example 43], the inhibition at 25 µM lay within 1 to 10%. As to `COC12CC3CC(C1)C(C#N)C(C3)C2` (stereo not drawn) [Example 44], the inhibition at 25 µM was in the range of 1 to 10%.
